# Measurements taken from patent US10092510B2, “Veterinary method for inducing emesis” (Orion Corporation, priority 2013, dated 2018).
# Where “and” joins values, the source holds several entries; their conditions need not be identical. Equal entries are not always repeated. Structures can show the parent of a compound that is named as a salt. Where two headings read alike, the source gives them in different places.
# System: dogs
# [1] = average of 6 dogs, pH 10, conc. 5 mg/ml, dose 30 μg/kg, both eyes
# [2] = individual dogs 1-6, pH 10, conc. 5 mg/ml, dose 30 μg/kg, both eyes
# [3] = average of 6 dogs, pH 4, conc. 10 mg/ml, dose 50 μg/kg, both eyes, fasted
# [4] = average of 6 dogs, pH 4, conc. 40 mg/ml, dose 100 μg/kg, right eye, fed
# [5] = individual dogs 1-6, pH 4, conc. 10 mg/ml, dose 50 μg/kg, both eyes, fasted, hydrochloride
# [6] = individual dogs 1-6, pH 4, conc. 40 mg/ml, dose 100 μg/kg, right eye, fed, hydrochloride
# Method: Aqueous eye drop solution comprising ropinirole hydrochloride (10 mg/ml or 40 mg/ml, pH 4) was administered into the eyes of six test dogs with doses of 50 μg/kg and 100 μg/kg for induction of emesis.
structure (smiles),measurement,setting,value
CCCN[C@H]1CCc2nc(N)sc2C1 [Pramipexole],Number of vomits,[1],3.3
same,Onset of the first vomit (average induction time for emesis),[1],4.5 min
same,The last vomit (vomiting ended on the average),[1],31.3 min
same,Prolonged emesis or irritation,"eye drop solution 5 mg/ml, pH 10, dose 30 μg/kg, six dogs",No prolonged emesis or significant irritation
same,Number of vomits,[2],6 (2×) and 1 (2×) and 3 (2×)
same,Onset of the first vomit,[2],2 min and 3 min (3×) and 4 min and 12 min
same,The last vomit,[2],62 min (2×) and 3 min and 27 min and 22 min and 12 min
"CCCN(CCC)CCc1cccc2c1CC(=O)N2 [Ropinirole HCl, Ropinirole hydrochloride]",Number of vomits,[3],3.5
same,Onset of the first vomit (average induction time for emesis),[3],6.7 min
same,The last vomit (vomiting ended on the average),[3],20.5 min
same,Number of vomits,[4],2.3
same,Onset of the first vomit (average induction time for emesis),[4],4.8 min
same,The last vomit (vomiting ended on the average),[4],12.3 min
same,"Time at which vomiting ends, from the administration","eye drop composition, general statement (typically)",≤ 20 min
same,Onset of emesis and tolerability when administered to the eye of the animal,general statement of findings,"consistent and rapid onset of emesis without producing unnecessarily prolonged emesis, ocular discomfort or significant local irritation"
same,Number of vomits,[5],3 (4×) and 2 and 7
same,Onset of the first vomit,[5],7 min and 6 min (3×) and 4 min and 11 min
same,The last vomit,[5],21 min and 20 min (2×) and 14 min and 12 min and 36 min
same,Number of vomits,[6],2 (3×) and 1 and 4 and 3
same,Onset of the first vomit,[6],6 min (2×) and 2 min and 7 min and 5 min and 3 min
same,The last vomit,[6],9 min and 10 min and 7 min and 15 min and 20 min (2×)
same,Dogs vomiting / dogs treated,"pH 4, conc. 10 mg/ml, dose 50 μg/kg, both eyes, fasted",Average 6/6
same,Dogs vomiting / dogs treated,"pH 4, conc. 40 mg/ml, dose 100 μg/kg, right eye, fed",Average 6/6
